One block for each molecule: values may come before it.
Legend:
[1] = test system: STZ-induced diabetes in mice; test: Plasma insulin; type: in vivo; details: two weeks of treatment, mean of 6 mice ± SEM
[2] = target: α-glucosidase; test: α-Glucosidase inhibition assay; type: biochemical; details: for IC50: read-out: α-Glucosidase IC50, Table 3, DF = 100
[3] = test system: STZ-induced diabetes in mice; test: Blood glucose in STZ-induced diabetes in mice; type: in vivo; details: p < 0.05
[4] = test system: STZ-induced diabetes in mice; test: Kidney function parameters; type: in vivo; details: two weeks of treatment, mean of 6 mice ± SEM; for Urea: plasma
[5] = test system: STZ-induced diabetes in mice; test: Oxidative stress markers; type: in vivo; details: plasma, two weeks of treatment, mean of 6 mice ± SEM
[6] = test system: STZ-induced diabetes in mice; test: Liver function markers; type: in vivo; details: plasma, two weeks of treatment, mean of 6 mice ± SEM

SMILES: O=C1CSC(N=C2c3ccccc3-c3nc4cc(F)ccc4nc32)=N1 [Compound 4]
Insulin [1]: 11.44 ± 0.2^a^,^b ng/mL
IC50 [2]: 10.2 µM

SMILES: CC(=O)c1sc(NN=C2c3ccccc3-c3nc4cc(F)ccc4nc32)nc1C [Compound 8, 1–(2-(2–(7-fluoro-11H-indeno[1,2-b]quinoxalin-11-ylidene)-hydrazineyl)-4-methyl-thiazol-5-yl)-ethan-1-one]
Insulin [1]: 10.5 ± 0.3^a^,^b ng/mL
IC50 [2]: 0.982 µM

SMILES: Cc1ccc(S(=O)(=O)NC(=O)NN2CC3CCCC3C2)cc1 (centres unmarked) [Gliclazide]
Blood sugar levels compared to the STZ-only treatment group [3]: declined significantly
Insulin [1]: 14.52 ± 0.4^a^,^b ng/mL
Insulin ([1]; listed as gliclazide): rose
Creat ([4]; plasma creatinine): 3.3 ± 0.1^a^,^b
Urea [4]: 57.5 ± 0.3^a^,^b
Urea ([4]; listed as gliclazide): significant lowering
GSH [5]: 3.15 ± 0.05^a^,^b
MDA [5]: 22 ± 0.2^a^,^b
GSH ([5]; listed as gliclazide): significant elevation
MDA ([5]; listed as gliclazide): significant reduction
ALT [6]: 53.7 ± 0.7^a^,^b
AST [6]: 39.8 ± 0.3^a^,^b
ALT ([6]; listed as gliclazide): significant reduction
AST ([6]; listed as gliclazide): significant reduction

Continued by falling IC50 [2], values first:

IC50 [2]: 7.03 µM
α-glucosidase inhibition IC50 ([2]; ± SD): good activity
SMILES: CCC1SC(NN=C2c3ccccc3-c3nc4cc(F)ccc4nc32)=NC1=O (centres unmarked) [Compound 16]
Insulin [1]: 9.34 ± 0.3^a^,^b ng/mL

IC50 [2]: 3 µM
SMILES: CCOC(=O)c1sc(N=C2c3ccccc3-c3nc4cc(F)ccc4nc32)nc1C [Compound 6]
Insulin [1]: 12.28 ± 0.3^a^,^b ng/mL
